The values that follow come from patent US12673954B2 (BRISTOL-MYERS SQUIBB COMPANY, priority 2021, dated 2026).

In general, EC50 refers to the concentration needed to bring the measured effect to its halfway point.

In assay [1] the test system is IRF pathway, THP1-Dual™ cells. The assay can be described thus: STING reporter assay in THP1-Dual cells, IRF pathway (Lucia luciferase, QUANTI-Luc). Particulars: THP1-Dual cells, 10% human plasma, 20 hours, Lucia luciferase, 100% activation = 100 μM cGAMP, read-out: IRF (EC50 μM). The assay is classed as cell-based, human. The essentials:
(§1)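 THP-1-derived dual-reporter cells treated with serially diluted compounds (final top concentration 100 μM) for 20 h at 37° C. NF-κB read as SEAP via QUANTI-Blue at OD620; IRF read as Lucia luminescence via QUANTI-Luc after 5 min. 100% activation set by 100 μM cGAMP, baseline by DMSO.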
Background: A reporter such as luciferase makes a cellular process visible.

Assay [2] has as its system NF-κB pathway, THP1-Dual™ cells. The assay can be described thus: STING reporter assay in THP1-Dual cells, NF-κB pathway (SEAP, QUANTI-Blue). It counts as cell-based, human. Particulars: THP1-Dual cells, 10% human plasma, 20 hours, SEAP, 100% activation = 100 μM cGAMP, read-out: NFkB (EC50 μM). The essentials:
as §1

The structures appear in SMILES notation. Like-named read-outs stand apart in the source and are kept apart here.

Regarding `[2H]C([2H])([2H])OC(=O)c1cccc2cc(CN3CCc4ccncc4C3=O)oc12` [EXAMPLE 353, Methyl-D3 2-((1-oxo-3,4-dihydro-2,7-naphthyridin-2(1H)-yl)methyl)benzofuran-7-carboxylate], the EC50 in assay [1] (Homo sapiens, THP1-Dual, 20 h) stood at 10 µM; in assay [2] (Homo sapiens, THP1-Dual, 20 h), 18 µM.
Turning to `O=C(OCC1CC1)c1cccc2cc(CN3CCc4ccncc4C3=O)oc12` [EXAMPLE 354, Cyclopropylmethyl 2-((1-oxo-3,4-dihydro-2,7-naphthyridin-2(1H)-yl)methyl)benzofuran-7-carboxylate], the EC50 turned out to be 46 µM in assay [1] (Homo sapiens, THP1-Dual, 20 h) and 70 µM in assay [2] (Homo sapiens, THP1-Dual, 20 h).
For `O=C(OCC(F)(F)F)c1ccc(F)c2cc(CNC(=O)c3cnn4cccnc34)oc12` [EXAMPLE 355, 2,2,2-Trifluoroethyl 4-fluoro-2-((pyrazolo[1,5-a]pyrimidine-3-carboxamido)methyl)benzofuran-7-carboxylate], in that order: 0.96 µM and 1.3 µM.
The matching figures for `O=C(OCC(F)(F)F)c1ccc(F)c2cc(Cn3cnc4ccncc4c3=O)oc12` [EXAMPLE 356]: 13 µM and 18 µM.
For `O=C(OCC(F)(F)F)c1ccc(Cl)c2cc(CNC(=O)c3cnn4cccnc34)oc12` [EXAMPLE 357, 2,2,2-Trifluoroethyl 4-chloro-2-((pyrazolo[1,5-a]pyrimidine-3-carboxamido)methyl)benzofuran-7-carboxylate], in that order: 0.9 µM and 1 µM.
As to `Cc1ccc(C(=O)OCC(F)(F)F)c2oc(CNC(=O)c3cnn4cccnc34)cc12` [EXAMPLE 358, 2,2,2-Trifluoroethyl 4-methyl-2-((pyrazolo[1,5-a]pyrimidine-3-carboxamido)methyl)benzofuran-7-carboxylate], the EC50 in assay [1] (Homo sapiens, THP1-Dual, 20 h) was determined as 2.9 µM; in assay [2] (Homo sapiens, THP1-Dual, 20 h), 2 µM.
For `Cc1ccc(C(=O)OCC(F)(F)F)c2oc(Cn3ccc4ccncc4c3=O)cc12` [EXAMPLE 359], the EC50 in assay [1] (Homo sapiens, THP1-Dual, 20 h) amounted to 3.8 µM; in assay [2] (Homo sapiens, THP1-Dual, 20 h), 4 µM.
In the case of `Cc1ccc(C(=O)OCC(F)(F)F)c2oc(Cn3cnc4ccncc4c3=O)cc12` [EXAMPLE 360], the EC50 is 2.8 µM in assay [1] (Homo sapiens, THP1-Dual, 20 h) and 3.4 µM in assay [2] (Homo sapiens, THP1-Dual, 20 h).
For `Cc1ccc(C(=O)OCC(F)(F)F)c2oc(CN3CCc4ccncc4C3=O)cc12` [EXAMPLE 361], in that order: 5.5 µM and 7.2 µM.
The matching figures for `O=C(OCC(F)(F)F)c1cc(F)cc2cc(Cn3ccc4ccncc4c3=O)oc12` [EXAMPLE 362, 2,2,2-Trifluoroethyl 5-fluoro-2-((1-oxo-2,7-naphthyridin-2(1H)-yl)methyl)benzofuran-7-carboxylate]: 5.7 µM and 4.6 µM.
The matching figures for `O=C(OCC(F)(F)F)c1cc(F)cc2cc(Cn3cnc4ccncc4c3=O)oc12` [EXAMPLE 363, 2,2,2-Trifluoroethyl 5-fluoro-2-((4-oxopyrido[4,3-d]pyrimidin-3(4H)-yl)methyl)benzofuran-7-carboxylate]: 3.5 µM and 3.2 µM.
Turning to `CC(OC(=O)c1cc(F)cc2cc(Cn3cnc4ccncc4c3=O)oc12)C(F)(F)F` (centres unmarked) [EXAMPLE 364, 1,1,1-Trifluoropropan-2-yl 5-fluoro-2-((4-oxopyrido[4,3-d]pyrimidin-3(4H)-yl)methyl)benzofuran-7-carboxylate], the values for the EC50 in assay [1] and in assay [2] were 35 µM and 21 µM, respectively.
`CC(OC(=O)c1cc(F)cc2cc(Cn3cnc4ccncc4c3=O)oc12)C(F)(F)F` (centres unmarked) [EXAMPLE 365, 1,1,1-Trifluoropropan-2-yl 5-fluoro-2-((4-oxopyrido[4,3-d]pyrimidin-3(4H)-yl)methyl)benzofuran-7-carboxylate]: the EC50 in assay [1] worked out at 7.5 µM; in assay [2], 4.4 µM.
For the compound `O=C(Cc1cc(F)cc2cc(CNC(=O)c3cnn4cccnc34)oc12)OCC(F)(F)F` [EXAMPLE 366, 2,2,2-Trifluoroethyl 2-(5-fluoro-2-((pyrazolo[1,5-a]pyrimidine-3-carboxamido)methyl)benzofuran-7-yl)acetate], the EC50 in assay [1] (Homo sapiens, THP1-Dual, 20 h) was 4 µM; in assay [2] (Homo sapiens, THP1-Dual, 20 h), 4 µM.
For the compound `C[C@@H](OC(=O)Cc1cc(F)cc2cc(CNC(=O)c3cnn4cccnc34)oc12)C(F)(F)F` [EXAMPLE 367, (R)-1,1,1-Trifluoropropan-2-yl 2-(5-fluoro-2-((pyrazolo[1,5-a]pyrimidine-3-carboxamido)methyl)benzofuran-7-yl)acetate], the EC50 is 7.5 µM in assay [1] (Homo sapiens, THP1-Dual, 20 h) and 9.5 µM in assay [2] (Homo sapiens, THP1-Dual, 20 h).
Turning to `O=C(OCC(F)(F)F)c1cc(Cl)cc2cc(CNC(=O)c3cnc4cccnn34)oc12` [EXAMPLE 369, 2,2,2-Trifluoroethyl 5-chloro-2-((imidazo[1,2-b]pyridazine-3-carboxamido)methyl)benzofuran-7-carboxylate], the EC50 came out at 0.91 µM in assay [1] (Homo sapiens, THP1-Dual, 20 h) and 1.1 µM in assay [2] (Homo sapiens, THP1-Dual, 20 h).
The matching figures for `O=C(OCC(F)(F)F)c1cc(Cl)cc2cc(CN3CCc4ccncc4C3=O)oc12` [EXAMPLE 370, 2,2,2-Trifluoroethyl 5-chloro-2-((1-oxo-3,4-dihydro-2,7-naphthyridin-2(1H)-yl)methyl)benzofuran-7-carboxylate]: 13 µM and 16 µM.
For `O=C(OCC(F)(F)F)c1cc(Cl)cc2cc(Cn3cnc4ccncc4c3=O)oc12` [EXAMPLE 371, 2,2,2-Trifluoroethyl 5-chloro-2-((4-oxopyrido[4,3-d]pyrimidin-3(4H)-yl)methyl)benzofuran-7-carboxylate], in that order: 2.5 µM and 2.8 µM.
`O=C(OCC(F)(F)F)c1cc(Cl)cc2cc(Cn3ccc4ccncc4c3=O)oc12` [EXAMPLE 372, 2,2,2-Trifluoroethyl 5-chloro-2-((1-oxo-2,7-naphthyridin-2(1H)-yl)methyl)benzofuran-7-carboxylate]: the EC50 was 3.7 µM in assay [1] (Homo sapiens, THP1-Dual, 20 h) and 4.6 µM in assay [2] (Homo sapiens, THP1-Dual, 20 h).
The matching figures for `O=C(NCc1cc2cc(Cl)cc(C(=O)OCC(F)(F)F)c2o1)c1cnccn1` [EXAMPLE 373, 2,2,2-Trifluoroethyl 5-chloro-2-((pyrazine-2-carboxamido)methyl)benzofuran-7-carboxylate]: 3.9 µM and 3.9 µM.
In the case of `Cc1cc(C(=O)OCC(F)(F)F)c2oc(Cn3cnc4ccncc4c3=O)cc2c1` [EXAMPLE 374, 2,2,2-Trifluoroethyl 5-methyl-2-((4-oxopyrido[4,3-d]pyrimidin-3(4H)-yl)methyl)benzofuran-7-carboxylate], the EC50 came out at 4.3 µM in assay [1] (Homo sapiens, THP1-Dual, 20 h) and 3.5 µM in assay [2] (Homo sapiens, THP1-Dual, 20 h).
The matching figures for `Cc1cc(C(=O)OCC(F)(F)F)c2oc(Cn3ccc4ccncc4c3=O)cc2c1` [EXAMPLE 375, 2,2,2-Trifluoroethyl 5-methyl-2-((1-oxo-2,7-naphthyridin-2(1H)-yl)methyl) benzofuran-7-carboxylate]: 2.6 µM and 2.3 µM.
The matching figures for `Cc1cc(C(=O)OCC(F)(F)F)c2oc(CN3CCc4ccncc4C3=O)cc2c1` [EXAMPLE 376, 2,2,2-Trifluoroethyl 5-methyl-2-((1-oxo-3,4-dihydro-2,7-naphthyridin-2(1H)-yl)methyl)benzofuran-7-carboxylate]: 19 µM and 16 µM.
The matching figures for `Cc1cc(C(=O)OCC(F)(F)F)c2oc(CNC(=O)c3cnn4cccnc34)cc2c1` [EXAMPLE 377, 2,2,2-Trifluoroethyl 5-methyl-2-((pyrazolo[1,5-a]pyrimidine-3-carboxamido)methyl)benzofuran-7-carboxylate]: 0.4 µM and 0.3 µM.
As to `Cc1cc(C(=O)OC(C)C(F)(F)F)c2oc(CNC(=O)c3cnn4cccnc34)cc2c1` (centres unmarked) [EXAMPLE 378, 1,1,1-Trifluoropropan-2-yl 5-methyl-2-((pyrazolo[1,5-a]pyrimidine-3-carboxamido)methyl)benzofuran-7-carboxylate], the EC50 in assay [1] (Homo sapiens, THP1-Dual, 20 h) stood at 1.3 µM; in assay [2] (Homo sapiens, THP1-Dual, 20 h), 1.2 µM.
For `CCOC(=O)c1c(C)ccc2cc(CNC(=O)c3cnn4cccnc34)oc12` [EXAMPLE 379, Ethyl 6-methyl-2-((pyrazolo[1,5-a]pyrimidine-3-carboxamido)methyl)benzofuran-7-carboxylate], in that order: 13 µM and 19 µM.
As for `CSC(=O)c1cccc2cc(CNC(=O)c3cnccn3)oc12` [EXAMPLE 381, S-Methyl 2-((pyrazine-2-carboxamido)methyl)benzofuran-7-carbothioate], the EC50 in assay [1] (Homo sapiens, THP1-Dual, 20 h) is 13 µM; in assay [2] (Homo sapiens, THP1-Dual, 20 h) it was 12 µM.
The matching figures for `CSC(=O)c1cc(F)cc2cc(CNC(=O)c3cnn4cccnc34)oc12` [EXAMPLE 382, S-Methyl 5-fluoro-2-((pyrazolo[1,5-a]pyrimidine-3-carboxamido)methyl)benzofuran-7-carbothioate]: 1.3 µM and 1.1 µM.
For `CSC(=O)c1cc(F)cc2cc(CNC(=O)c3cnc4cccnn34)oc12` [EXAMPLE 383, S-Methyl 5-fluoro-2-((imidazo[1,2-b]pyridazine-3-carboxamido)methyl)benzofuran-7-carbothioate], in that order: 0.92 µM and 1.1 µM.
For `CSC(=O)c1cc(F)cc2cc(CNC(=O)c3cnccn3)oc12` [EXAMPLE 384, S-Methyl 5-fluoro-2-((pyrazine-2-carboxamido)methyl)benzofuran-7-carbothioate], in that order: 3.2 µM and 3 µM.
In the case of `CSC(=O)c1cc(F)cc2cc(Cn3cnc4ccncc4c3=O)oc12` [EXAMPLE 385, S-Methyl 5-fluoro-2-((4-oxopyrido[4,3-d]pyrimidin-3(4H)-yl)methyl)benzofuran-7-carbothioate], the EC50 amounted to 2.1 µM in assay [1] (Homo sapiens, THP1-Dual, 20 h) and 2.5 µM in assay [2] (Homo sapiens, THP1-Dual, 20 h).
